Results taken from patent publication US5424290A, “Biologically active peptides and uses therefor” (Magainin Pharmaceuticals Inc., priority 1992, dated 1995).
Residues, ends and D or L forms follow the SMILES beside them.

Columns and labels:
Format in all cases: cell-based
[1] = tested on: Candida albicans; assay: Minimal Inhibitory Concentration, microtiter broth dilution assay; conditions: Mueller Hinton broth, 16-20 hours at 37° C., lowest concentration giving a clear well
Source text: (§1) Table I, which follows, indicates the Minimal Inhibitory Concentration (MIC) in μg/ml of Peptides (SEQ ID NO:1) through (SEQ ID NO:4), (SEQ ID NO:6) through (SEQ ID NO:13), (SEQ ID NO:16), (SEQ ID NO:20), (SEQ ID NO:21) and (SEQ ID NO:23) against S. aureus strain ATCC 25923, P. aeruginosa strain ATCC 27853, E. coli strain 25922, and Candida albicans. The procedure for the antibacterial assay is based upon the guidelines of the National Committee for Clinical Laboratory Standards, Document M7-T2, Volume 8, No. 8, 1988. Stock solutions of the peptides hereinabove mentioned are prepared at a concentration of 512 μg/ml in sterile deionized distilled water and stored at […]. Each peptide is a C-terminal amide and may or may not be acetylated at the N-terminus. An acetyl group at the N-terminus is indicated by an X. The stock peptide solution is diluted in serial dilutions (1:2) down the wells of a microtiter plate so that the final concentrations of peptides in the wells are 0.25, 0.50, 1, 2, 4, 8, 16, 32, 64, 128, and 256 μg/ml. 1-5×10^5 CFUs/ml of either S. aureus ATCC 25923, E. coli ATCC 25922, P. aeruginosa ATCC 27853, or Candida albicans were added to the wells in full strength Mueller Hinton broth (BBL 11443) from a mid-log culture. The inoculum is standardized spectrophotometrically at 600 nm and is verified by colony counts. The plates are incubated for 16-20 hours at 37° C., and the minimal inhibitory concentration (MIC) for each peptide is determined. Minimal inhibitory concentration is defined as the lowest concentration of peptide which produces a clear well in the microtiter plate.

[2] = tested on: S. aureus strain ATCC 25923; assay: Minimal Inhibitory Concentration, microtiter broth dilution antibacterial assay; conditions: S. aureus ATCC 25923; Mueller Hinton broth; 16-20 hours at 37° C.; lowest concentration giving a clear well
Source text: as §1

[3] = tested on: E. coli ATCC 25922; assay: as above; conditions: Mueller Hinton broth, 16-20 hours at 37° C., lowest concentration giving a clear well
Source text: as §1

Structure (SMILES) | Minimal Inhibitory Concentration C. albicans [1] [µg/mL] | Minimal Inhibitory Concentration S. aureus [2] [µg/mL] | Minimal Inhibitory Concentration E. coli [3] [µg/mL]
CC[C@H](C)[C@H](NC(=O)[C@H](C)NC(=O)[C@H](CCCCN)NC(=O)CNC(=O)[C@@H](NC(=O)[C@H](CCCCN)NC(=O)[C@H](CCCCN)NC(=O)[C@H](C)NC(=O)[C@H](CCCCN)NC(=O)[C@H](CCCCN)NC(=O)[C@H](CC(C)C)NC(=O)[C@@H](NC(=O)[C@H](CCCCN)NC(=O)CNC(=O)[C@@H](N)Cc1ccccc1)[C@@H](C)CC)[C@@H](C)CC)C(=O)N[C@H](C(=O)N[C@@H](CCCCN)C(=O)N[C@@H](Cc1ccccc1)C(=O)N[C@@H](CC(C)C)C(=O)N[C@@H](CCCCN)C(=O)N[C@@H](CCCCN)C(N)=O)C(C)C [(SEQ ID NO: 23)-NH2] (H-FGKILKKAKKIGKAIVKFLKK-NH2) | 128 | 16 | 32
CC[C@H](C)[C@H](NC(=O)CN)C(=O)N[C@H](C(=O)NCC(=O)N[C@@H](CCCCN)C(=O)N[C@@H](Cc1ccccc1)C(=O)N[C@@H](CC(C)C)C(=O)N[C@@H](CCCCN)C(=O)N[C@@H](CCCCN)C(=O)N[C@@H](C)C(=O)N[C@@H](CCCCN)C(=O)N[C@@H](CCCCN)C(=O)N[C@@H](Cc1ccccc1)C(=O)NCC(=O)N[C@@H](CCCCN)C(=O)N[C@@H](C)C(=O)N[C@@H](Cc1ccccc1)C(=O)N[C@H](C(=O)N[C@@H](CCCCN)C(=O)N[C@H](C(=O)N[C@@H](CC(C)C)C(=O)N[C@@H](CCCCN)C(=O)N[C@@H](CCCCN)C(N)=O)[C@@H](C)CC)C(C)C)[C@@H](C)CC [(SEQ ID NO: 16)-NH2] (H-GIIGKFLKKAKKFGKAFVKILKK-NH2) | 64 | 4 | 8
CC[C@H](C)[C@H](NC(C)=O)C(=O)NCC(=O)N[C@@H](CCCCN)C(=O)N[C@@H](Cc1ccccc1)C(=O)N[C@@H](CC(C)C)C(=O)N[C@@H](CCCCN)C(=O)N[C@@H](CCCCN)C(=O)N[C@@H](C)C(=O)N[C@@H](CCCCN)C(=O)N[C@@H](CCCCN)C(=O)N[C@@H](Cc1ccccc1)C(=O)NCC(=O)N[C@@H](CCCCN)C(=O)N[C@@H](C)C(=O)N[C@@H](Cc1ccccc1)C(=O)N[C@H](C(=O)N[C@@H](CCCCN)C(=O)N[C@H](C(=O)N[C@@H](CC(C)C)C(=O)N[C@@H](CCCCN)C(=O)N[C@@H](CCCCN)C(N)=O)[C@@H](C)CC)C(C)C [X- (SEQ ID NO: 1)-NH2] (Ac-IGKFLKKAKKFGKAFVKILKK-NH2) | 128 | 8 | 8
